Consider 2 compounds from patent US9862676B2, “Hydroxamic acid derivative or salt thereof” (TOYAMA CHEMICAL CO., LTD., priority 2013, dated 2018).

≈ marks a conversion by molar mass, not a printed value.

A word on the MIC: it is the lowest concentration found to suppress growth. By IC50 is commonly meant the concentration needed to halve the response being measured.

Data set [1] is described as follows: Test on inhibition of Vero cell growth (XTT). The settings on record: African green monkey, Vero cells, 3 days culture, read-out: CC50 (concentration inhibiting 50% of cell growth). In kind it is cell-based. The procedure:
Each test compound was dissolved in dimethyl sulfoxide, adjusted to each concentration using E'MEM, and then dispensed at 0.1 mL/well to 96-well microplates. The Vero cell suspension was prepared at 3×10^4 cells/mL using E'MEM supplemented with 20% FBS, inoculated thereto at 0.1 mL/well, and cultured at 37° C. for 3 days under 5% CO2. At the completion of the culture, PBS supplemented with 1 mg/mL 2,3-bis-(2-methoxy-4-nitro-5-sulfophenyl)-5-((phenylamino)carbonyl)-2H-tetrazolium inner salt monosodium salt (XTT) and 25 μM phenazine methosulfate (PMS) was prepared and added thereto at 50 μL/well. Approximately 2 hours later, the absorbance at 450 nm was measured using a microplate reader.
In general terms: Tetrazolium assays rely on reduction of a dye to a coloured formazan, in cell work by metabolically active cells.

The target of data set [2] is T1, hERG current (Homo sapiens, UniProt Q12809).
T1 construct: host or cells: HEK 293 cells
T1 sequence (Q12809 whole entry): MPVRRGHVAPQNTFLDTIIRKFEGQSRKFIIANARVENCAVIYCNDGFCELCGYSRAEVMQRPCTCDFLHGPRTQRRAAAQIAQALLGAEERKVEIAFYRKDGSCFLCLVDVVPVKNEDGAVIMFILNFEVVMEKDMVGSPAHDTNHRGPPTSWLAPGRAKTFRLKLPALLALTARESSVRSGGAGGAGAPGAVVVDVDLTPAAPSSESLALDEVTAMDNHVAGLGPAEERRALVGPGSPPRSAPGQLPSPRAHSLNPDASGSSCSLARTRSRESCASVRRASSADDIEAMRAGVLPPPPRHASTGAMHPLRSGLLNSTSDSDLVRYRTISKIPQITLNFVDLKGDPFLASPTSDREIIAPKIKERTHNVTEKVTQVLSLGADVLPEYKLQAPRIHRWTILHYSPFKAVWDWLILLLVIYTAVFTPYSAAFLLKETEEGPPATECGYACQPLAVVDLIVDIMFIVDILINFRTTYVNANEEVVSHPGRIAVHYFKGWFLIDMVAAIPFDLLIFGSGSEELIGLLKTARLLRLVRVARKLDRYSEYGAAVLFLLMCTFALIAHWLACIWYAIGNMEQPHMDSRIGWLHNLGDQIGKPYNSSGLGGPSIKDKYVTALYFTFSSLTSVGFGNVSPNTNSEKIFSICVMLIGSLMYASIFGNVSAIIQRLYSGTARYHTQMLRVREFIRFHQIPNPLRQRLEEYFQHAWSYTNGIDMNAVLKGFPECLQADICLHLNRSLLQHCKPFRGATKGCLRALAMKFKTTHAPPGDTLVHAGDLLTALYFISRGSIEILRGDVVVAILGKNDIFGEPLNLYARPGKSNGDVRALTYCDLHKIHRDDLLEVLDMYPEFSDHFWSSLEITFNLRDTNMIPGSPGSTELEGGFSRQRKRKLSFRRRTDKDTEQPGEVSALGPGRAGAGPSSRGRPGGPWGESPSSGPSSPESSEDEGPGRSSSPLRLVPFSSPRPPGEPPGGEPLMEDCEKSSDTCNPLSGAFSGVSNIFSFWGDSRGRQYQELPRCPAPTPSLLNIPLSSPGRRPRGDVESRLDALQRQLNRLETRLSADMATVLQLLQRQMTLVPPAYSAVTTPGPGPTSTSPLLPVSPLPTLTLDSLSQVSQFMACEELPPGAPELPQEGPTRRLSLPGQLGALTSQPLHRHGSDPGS
As to the kind of experiment: Evaluation of hERG inhibitory activity (whole cell clamp, HEK 293 cells). In kind it is cell-based. The following applies: up to 300 μmol/L; HEK 293 cells transfected with hERG gene, tail current 10 minutes after application. Here is the method:
HEK 293 cells (human embryo kidney 293 cells, Cytomyx LLC) transfected with hERG gene (human ether-a-go-go related gene) were used. The culture solution used was a MEM medium containing 10% fetal bovine serum and 1% nonessential amino acid and further supplemented with Geneticin at a concentration of 400 μg/mL. The cells were cultured in a carbonic acid gas incubator (37.0° C., 5% CO2).
The hERG current was measured by a whole cell clamp method. A glass cover with the cells for measurement attached thereto was placed in a dish and perfused at a rate of 2 mL/min with a perfusate (composition: 137 mmol/L NaCl, 4 mmol/L KCl, 10 mmol/L HEPES, 1.8 mmol/L CaCl2, 1 mmol/L MgCl2, 10 mmol/L glucose, pH 7.4). The inside temperature of the perfusion chamber was kept at 25° C. […]
Before the application and 10 minutes after the application, the peak value of tail current in the hERG current waveform was analyzed to calculate the ratio of the value 10 minutes after the application to the value before the application (relative value, %).
For orientation: The hERG channel carries a current that helps repolarise heart muscle cells.

In data set [3] the test system is multidrug-resistant Pseudomonas aeruginosa clinical isolate (S-2838 strain). In words: Defense against mouse systemic infection using multidrug-resistant Pseudomonas aeruginosa. In kind it is in vivo. The following applies: male ICR mice, S-2838 strain i.p. Here is the method:
The mice used were male ICR SPF mice (4 weeks old: 5 individuals per group). To prepare a bacterial inoculum solution, a multidrug-resistant Pseudomonas aeruginosa clinical isolate (S-2838 strain) cultured overnight at 37° C. on a Mueller-Hinton agar plate was cultured for 5 hours in a cation-adjusted Mueller-Hinton medium and then diluted 10-fold with a 10% mucin/phosphate buffer solution to prepare the inoculum solution. Infection was induced by the intraperitoneal inoculation of 0.5 mL of the inoculum solution (approximately 10^6 CFU/mouse) to each mouse. Each test compound was dissolved in a 10% hydroxypropylated β-cyclodextrin/2.5% mannitol aqueous solution and intravenously administered to the tail a single dose of 50 mg/kg at 1 hour after the infection. Three days after the infection, the number of survivors was recorded.

Data set [4] relates to Pseudomonas aeruginosa ATCC27853 strain. As to the kind of experiment: Antibacterial activity, MIC by broth microdilution (CLSI). Type of data set: cell-based. Here is the method: (§1) The minimum inhibitory concentration (MIC) was measured according to the CLSI (Clinical and Laboratory Standards Institute) standard method using a broth microdilution method given below. The bacteria used were a Pseudomonas aeruginosa ATCC27853 strain, an Escherichia coli ATCC25922 strain and a Klebsiella pneumoniae ATCC13883 strain. Test bacterial cells of each strain cultured overnight in a Mueller-Hinton agar medium were scraped off and suspended at the McFarland 0.5 standard, and this suspension was diluted 10-fold to prepare an inoculum solution. The inoculum solution (0.005 mL) was inoculated to a cation-adjusted Mueller-Hinton medium containing each test compound and cultured at 35° C. for 16 to 20 hours. The minimum drug concentration at which bacterial growth was not visible to the naked eye was defined as MIC.

In data set [5] the test system is Chinese hamster lung fibroblasts (CHL/IU cells). As to the kind of experiment: In vitro micronucleus test for genotoxicity. In kind it is cell-based. The following applies: dose of 1 mmol/L or lower, short-time treatment (with and without metabolic activation) and 30-hour treatment methods. Here is the method: In order to examine the inducibility of the chromosomal aberrations by each test compound in cultured cells, the in vitro micronucleus test was carried out. This test was carried out by a short-time treatment method (in the presence and absence of a metabolic activation) and a 30-hour treatment method using Chinese hamster lung fibroblasts (CHL/IU cells). The concentration of the test compound was set to 1.00 mmol/L as the maximum dose with reference to the “Guidance on Genotoxicity Testing and Data Interpretation for Pharmaceuticals Intended for Human Use”. Specimens were observed as to doses of 0.25, 0.50 and 1.00 mmol/L. The cells were inoculated at 15×10^4 cells to a 60-mm dish (IWAKI) and precultured at 37° C. for 24 hours under 5% CO2 using a MEM medium (Sigma-Aldrich Co., Ltd.) containing 10% newborn calf serum (Sigma-Aldrich Co., Ltd.) and 50 U/mL-50 μg/mL Penicillin-Streptomycin (Sigma-Aldrich Co., Ltd.). After the completion of the preculture, a vehicle (DMSO) or each test compound was added thereto. In the short-time treatment method, 6 hours after the culture, the cells were washed with PBS(−) (Sigma-Aldrich Co., Ltd.), and then, the medium was replaced with a fresh medium, followed by further culture for 24 hours. In the 30-hour treatment method, after the addition of the test compound, the cells were cultured for 30 hours. […]

The target in data set [6] is T2, Pseudomonas aeruginosa LpxC enzyme (Pseudomonas aeruginosa, UniProt P47205).
T2 construct: made in house; host or cells: Escherichia coli
T2 sequence (P47205 1-303): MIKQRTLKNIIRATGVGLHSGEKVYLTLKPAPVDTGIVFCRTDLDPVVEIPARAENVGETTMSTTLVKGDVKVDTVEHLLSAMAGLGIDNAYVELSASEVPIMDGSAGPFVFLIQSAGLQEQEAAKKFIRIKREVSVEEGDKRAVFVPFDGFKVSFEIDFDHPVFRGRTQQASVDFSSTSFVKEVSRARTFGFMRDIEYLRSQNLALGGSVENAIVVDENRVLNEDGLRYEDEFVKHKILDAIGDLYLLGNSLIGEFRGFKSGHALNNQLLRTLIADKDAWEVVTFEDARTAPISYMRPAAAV
In words: Test to evaluate Pseudomonas aeruginosa LpxC enzyme inhibitory activity. In kind it is biochemical. Here is the method:
The Pseudomonas aeruginosa LpxC enzyme activity was measured by reacting LpxC with its substrate UDP-3-O—(R-3-hydroxydecanoyl)-N-acetylglucosamine and measuring the amount of the reaction product by the quantification of an amino group present in the product. This measurement was carried out according to a method described in, for example, International Publication No. WO 11/132712 pamphlet or a method similar thereto.
Specifically, to the Pseudomonas aeruginosa LpxC enzyme (which was obtained by preparing chromosomal DNA from Pseudomonas aeruginosa, obtaining the Pseudomonas aeruginosa LpxC gene by PCR (polymerase chain reaction) using LpxC-specific primers, and incorporating this gene into a vector, followed by gene expression using Escherichia coli), 20 μmol/L UDP-3-O—(R-3-hydroxydecanoyl)-N-acetylglucosamine (Wako Pure Chemical Industries, Ltd.) was added, and the mixture was incubated at 25° C. for 1 hour. This reaction was carried out in a 40 mmol/L HEPES buffer solution (pH 8.0) containing 0.02% Brij 35 and 80 μmol/L dithiothreitol. The reaction was terminated by the addition of 20% acetic acid (final concentration: 0.95%) to the reaction solution. Then, fluorescamine (final concentration: 1.6 mg/mL) dissolved in anhydrous dioxane was added thereto. The amount of the reaction product was detected at an excitation wavelength/fluorescence wavelength=390 nm/495 nm. Each test compound was allowed to coexist at various concentrations in the reaction to obtain an inhibition curve.

Data set [7] deals with Escherichia coli ATCC25922 strain. As to the kind of experiment: Antibacterial activity, MIC by broth microdilution (CLSI). Type of data set: cell-based. Here is the method:
as §1

The test system of data set [8] is Klebsiella pneumoniae ATCC13883 strain. Described as above. Type of data set: cell-based. The procedure: as §1
Setting [9] is: single intravenous dose 50 mg/kg 1 hour after infection.

With `CNC(=O)[C@@](C)(C(=O)NO)N(C)C(=O)c1ccc(C#Cc2ccc([C@H](O)CO)cc2)cc1` [Example 20, (2S)-2-((4-((4-((1S)-1,2-dihydroxyethyl)phenyl)ethynyl)benzoyl)(methyl)amino)-N-hydroxy-N′,2-dimethyl-malonamide], the CC50 at 3 days in data set [1] is no less than 100 µg/mL. Moreover, the hERG inhibitory activity result in data set [2] was “did not exhibit hERG inhibitory activity”. Further, the “mice surviving 3 days after the bacterial inoculation” value was no less than 60% in data set [3] (25 mg/kg) and 100% in data set [3] (setting [9]). The compound further showed an MIC in data set [4] of 1 µg/mL (≈ 2.28 µM). The “in vitro micronucleus test result” value in data set [5] is on record as “negative”. For the same compound, the 50% inhibitory concentration (IC50) in data set [6] was less than 50 nM.
Take `CNC(=O)[C@@](C)(C(=O)NO)N(C)C(=O)c1ccc(C#Cc2ccc([C@H](O)COC)cc2)cc1` [Example 23, (2S)—N-hydroxy-2-((4-((4-((1S)-1-hydroxy-2-methoxyethyl)phenyl)ethynyl)benzoyl)(methyl)amino)-N′,2-dimethyl-malonamide]: the CC50 at 3 days in data set [1] was no less than 100 µg/mL. In data set [2], the hERG inhibitory activity result is given as “did not exhibit hERG inhibitory activity”. Besides, the “mice surviving 3 days after the bacterial inoculation” value in data set [3] (setting [9]) is 100%. The MIC in data set [4] worked out at 1 µg/mL (≈ 2.21 µM); in data set [7], 0.25 µg/mL (≈ 0.551 µM); in data set [8], 1 µg/mL (≈ 2.21 µM). Further, the IC50 in data set [6] is less than 50 nM.
